Data published in patent US8399683B2 (TetraLogic Pharmaceuticals, priority 2008, dated 2013).

Columns and labels:
[1] = target: T1, XIAP BIR-3 (Homo sapiens, UniProt P98170); assay: Fluorescence polarization binding affinity to XIAP BIR-3 (competition with AbuRPF-K(5-Fam)-NH2); conditions: 5 nM labeled peptide, 40 nM BIR3, 15 min at RT, pH 7.5; reported as ranges
T1 construct: 40 nM of the respective IAP BIR3
Procedure: (§1) The binding affinities of the compounds are reported as a KD value (μM). Briefly, various concentrations of test peptides were mixed with 5 nM of the fluorescently labeled peptide (i.e., a mutated N-terminal Smac peptide—AbuRPF-K(5-Fam)-NH2) and 40 nM of the respective IAP BIR3 for 15 min at RT in […] of 0.1M Potassium Phosphate buffer, pH 7.5 containing […] bovine g-globulin. Following incubation, the polarization values (mP) were measured on a Victor2V (available from PerkinElmer Life Sciences) using a 485 nm excitation filter and a 520 nm emission filter. The reported KD values are supplied as ranges (A=<0.1 μM, B=0.1 μM to 1 μM, C>1 μM to 10 μM, D=>10 μM).

[2] = test system: SK-OV-3 cells; assay: Growth inhibition of ovarian cancer cell line SK-OV-3 (MTT assay, cell survival); assay type: cell-based; conditions: Homo sapiens, drug concentration that results in 50% cell survival, 72 hrs incubation, reported as ranges
Procedure: Compounds of the invention also were tested for their ability to inhibit the growth of an ovarian cancer cell line, SK-OV-3. A known assay previously used for measuring cell growth (as described in Hansen, M. B., Nielsen, S. E., and Berg, K. (1989) J. Immunol. Methods 119, 203-210 and incorporated herein by reference in its entirety) was used. Briefly, SK-OV-3 cells are seeded in 96-well plates in McCoy's medium containing 10% fetal bovine serum albumin (5,000 per well) and incubated overnight at 37° C. The next day, test compounds are added at various concentrations (0.003-10 μM) and the plates are incubated at 37° C. for an additional 72 hrs. This incubation time was considered to be optimal for measuring inhibitory effects of the different compounds tested. 50 microliters of 5 mg/mL MTT reagent is added to each well and the plates are incubated at 37° C. for another three (3) hours. At the end of the three (3) hour incubation period, 50 microliters of DMSO is added to each well to dissolve cells and the optical density (OD) of the wells is measured with a microplate reader (Victor^2 1420, Wallac, Finland) at 535 nm. Cell survival (CS) was calculated using the following equation: CS=(OD treated well/mean OD control wells)×100%.
The CC50 (reported in the following tables), is defined as the drug concentration that results in 50% cell survival (CS), and is derived by calculating the point where the dose-response curve crosses the 50% CS point using GraphPad Prism. The reported CC50 values are supplied as ranges (A=<0.1 μM, B=0.1 μM to 1 μM, C=>1 μM to 10 μM, D=>10 μM).

[3] = target: cIAP-1 BIR-3 (Homo sapiens, UniProt Q13490); assay: Fluorescence polarization binding affinity to cIAP-1 BIR-3 (competition with AbuRPF-K(5-Fam)-NH2); conditions: 5 nM labeled peptide, 40 nM BIR3, 15 min at RT, pH 7.5; reported as ranges; read-out: KD (c-IAP-1 BIR3)
Procedure: as §1

Chain of cIAP-1 BIR-3 (Q13490 266-352 limits assumed): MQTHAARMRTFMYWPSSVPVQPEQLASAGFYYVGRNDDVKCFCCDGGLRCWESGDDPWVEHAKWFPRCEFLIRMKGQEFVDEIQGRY
T1 sequence (P98170 241-356 limits assumed): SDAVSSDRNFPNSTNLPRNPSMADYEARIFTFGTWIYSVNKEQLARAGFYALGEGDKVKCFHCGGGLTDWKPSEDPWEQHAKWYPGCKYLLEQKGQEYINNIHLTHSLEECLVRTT

Row | Kd [1] [nM] | Kd [3] [nM] | SMILES | CC50 [2] [nM]
1 | 100 to 1000 | 100 to 1000 | CN[C@@H](C)C(=O)N[C@H](C(=O)N1CC[C@@H]2[C@H]1[C@@H](c1c[nH]c3cc(F)ccc13)CN2C1CCCC1)[C@@H](C)O [Example 15] | 100 to 1000
2 | > 10000 | 1000 to 10000 | CN[C@@H](C)C(=O)N[C@H](C(=O)N1CC[C@@H]2[C@H]1[C@H](c1c[nH]c3cc(F)ccc13)CN2S(C)(=O)=O)[C@@H](C)O [Example 55, N-{1-[6-(6-Fluoro-1H-indol-3-yl)-4-methanesulfonyl-hexahydro-pyrrolo[3,2-b]pyrrole-1-carbonyl]-2-hydroxy-propyl}-2-methylamino-propionamide] | > 10000
3 | 100 to 1000 | < 100 | CN[C@@H](C)C(=O)N[C@H](C(=O)N1CC[C@@H]2[C@H]1[C@@H](c1c[nH]c3cc(F)ccc13)CN2C1CCCC1)[C@@H](C)OC [Example 16, N-{1-[4-Cyclopentyl-6-(6-fluoro-1H-indol-3-yl)-hexahydro-pyrrolo-[3,2-b]pyrrole-1-carbonyl]-2-methoxy-propyl}-2-methylamino-propionamide] | 100 to 1000
4 | < 100 | < 100 | CN[C@@H](C)C(=O)N[C@H](C(=O)N1CC[C@@H]2[C@H]1[C@@H](c1c[nH]c3cc(F)ccc13)CN2C1CCCCC1)C1CCCCC1 [Example 20, N-{1-Cyclohexyl-2-[4-cyclohexyl-6-(6-fluoro-1H-indol-3-yl)-hexahydro-pyrrolo[3,2-b]pyrrol-1-yl]-2-oxo-ethyl}-2-methylamino-propionamide] | 100 to 1000
5 | 1000 to 10000 | < 100 | CN[C@@H](C)C(=O)N[C@H](C(=O)N1CC[C@@H]2[C@H]1[C@@H](c1c[nH]c3cc(F)ccc13)CN2C(C)C)C1CCCCC1 [Example 19, N-{1-Cyclohexyl-2-[6-(6-fluoro-1H-indol-3-yl)-4-isopropyl-hexahydro-pyrrolo[3,2-b]pyrrol-1-yl]-2-oxo-ethyl}-2-methylamino-propionamide] | 100 to 1000
6 | < 100 | < 100 | CN[C@@H](C)C(=O)N[C@H](C(=O)N1CC[C@@H]2[C@H]1[C@@H](c1c[nH]c3cc(F)ccc13)CN2Cc1ccccc1)C1CCCCC1 [Example 107] | 100 to 1000
7 | < 100 | < 100 | CN[C@@H](C)C(=O)N[C@@H](COC)C(=O)N1CC[C@@H]2[C@H]1[C@@H](c1c[nH]c3cc(F)ccc13)CN2S(C)(=O)=O [Example 54] | 100 to 1000
8 | < 100 | < 100 | CN[C@@H](C)C(=O)N[C@@H](COC)C(=O)N1CC[C@@H]2[C@H]1[C@@H](c1c[nH]c3cc(F)ccc13)CN2c1ncccn1 [Example 81, N-{2-[6-(6-Fluoro-1H-indol-3-yl)-4-pyrimidin-2-yl-hexahydro-pyrrolo[3,2-b]pyrrol-1-yl]-1-methoxymethyl-2-oxo-ethyl}-2-methylamino-propionamide] | < 100
9 | < 100 | < 100 | CN[C@@H](C)C(=O)N[C@H](C(=O)N1CC[C@@H]2[C@H]1[C@@H](c1c[nH]c3cc(F)ccc13)CN2Cc1ccccc1)C(C)(C)C [Example 104] | < 100
10 | > 10000 | 1000 to 10000 | CN[C@@H](C)C(=O)N[C@H](C(=O)N1CC[C@H]2NC[C@@H](c3c[nH]c4cc(F)ccc34)[C@H]21)C1CCCCC1 [Example 87] | > 10000
11 | 1000 to 10000 | 100 to 1000 | CN[C@@H](C)C(=O)N[C@H](C(=O)N1CC[C@@H]2[C@H]1[C@@H](c1c[nH]c3ccccc13)CN2C1CCCCC1)[C@@H](C)OC [Example 97] | 100 to 1000
12 | < 100 | < 100 | CC[C@H](NC(=O)[C@H](C)NC)C(=O)N1CC[C@H]2NC[C@H](c3c[nH]c4cc(F)ccc34)[C@H]21 [Example 29, N-{1-[6-(6-Fluoro-1H-indol-3-yl)-hexahydro-pyrrolo[3,2-b]pyrrole-1-carbonyl]-propyl}-2-methylamino-propionamide] | 100 to 1000
